Measured values reported in patent US20090036426A1 (AMPLA Pharmaceuticals Inc., priority 2007, published 2009).

Key:
CB1 receptor [1] = molecular target: T1, CB1 receptor (Homo sapiens, UniProt P21554); assay: Functional activity versus the CB1 receptor (statement, no method)
CB1 receptor [2] = molecular target: T1, CB1 receptor; assay: Competition ligand binding assay, CHO-k1 cell membranes; set-up: expressed in transfected cells; host or cells: CHO-k1 cell membranes; conditions: 0.75 nM radioligand, FIG. 6
Description: (§1) Competition ligand binding assays were performed with the non-selective cannabinoid receptor agonist ([^3H]CP 55,940) (0.75 nM) in the binding buffer containing 50 mM Tris-HCl, pH 7.4, 3 mM MgCl2, 1 mM EDTA, 0.2% BSA using CHO-k1 cell membranes stably expressing human CB1 receptors or mouse brain membrane preparations in 96-well plate format. The receptor membranes (10 μg/well) were pre-incubated with different concentrations of tested compounds in the binding buffer at room temperature for 30 min prior to addition of 0.75 nM [^3H]CP 55,940 in a final volume of 100 μl. The binding was carried out at room temperature for another 2 h. To determine the non-specific binding, experiments were also performed in the presence of 10 μM unlabeled CP 55,940. Binding was terminated by addition of cold binding buffer and filtrated on Whatman GF/B glass-fiber filters using a sampling manifold. The filters were washed 6 times with cold binding buffer and air-dried overnight. The radioactivity was quantitated on a TopCounter (PerkinElmer) after adding scintillation fluid. Specific binding was defined as the difference between the binding in the presence and absence of 10 μM unlabeled CP 55, 940.

[3] = molecular target: T2, mouse CB1 (mouse brain membrane) (Mus musculus, UniProt P47746); assay: Competition ligand binding assay, mouse brain membrane preparations
T2 construct: or mouse brain membrane preparations in 96-well plate format; from tissue; host or cells: mouse brain membranes
Description: as §1

CB1 receptor [4] = molecular target: T1, CB1 receptor; assay: Dissociation kinetics assay with [3H]CP 55,940 on CHO-k1 cell membranes; assay type: binding; set-up: expressed in transfected cells; host or cells: CHO-k1 cell membranes; conditions: 0.75 nM [3H]CP 55,940, room temperature, FIG. 3
Description: Dissociation kinetics assays were performed with the non-selective cannabinoid receptor agonist ([^3H]CP 55,940) (0.75 nM) in the binding buffer containing 50 mM Tris-HCl, pH 7.4, 3 mM MgCl2, 1 mM EDTA, 0.2% BSA using CHO-k1 cell membranes stably expressing human CB1 receptors in 96-well plate format. The CB1 receptor membranes (10 μg/well) were incubated with 0.75 nM [^3H]CP 55,940 in 100 μl binding buffer at room temperature for 2 h. Dissociation was initiated with addition of 100 μl unlabeled CP 55,940 (10 μM) in binding buffer in the absence or presence of different concentrations of compounds (compound 7). Dissociation was carried out at room temperature for indicated time. To determine the non-specific binding, experiments were also performed in the presence of 10 μM unlabeled CP 55,940. Binding was terminated by addition of cold binding buffer and filtrated on Whatman GF/B glass-fiber filters using a sampling manifold. The filters were washed 6 times with cold binding buffer and air-dried overnight. The radioactivity was quantitated on a TopCounter (PerkinElmer) after adding scintillation fluid. Specific binding was defined as the difference between the binding in the presence and absence of 10 μM unlabeled CP 55,940.

[5] = molecular target: T3, Human Cannabinoid 1 (CB1) receptor (Homo sapiens, UniProt P21554); assay: Ca2+i response to 2-AG dose-response in CB1 cells with or without compound (DSIS flow cytometry); assay type: cell-based; conditions: 2-AG with or without compound, FIG. 2
T3 construct: expressed in transfected cells; host or cells: CHO cells stably expressing the GqΔGi chimera; clonal CB1 line
From the text: cDNA for the G protein GqΔGi chimera was generated by PCR and inserted into the polylinker region of the pcDNA3/hygro+ vector (Invitrogen). Stable expression of GqΔGi chimera protein in CHO cell line was generated under hygromycin selection. Human Cannabinoid 1 (CB1) cDNA was inserted into the polylinker region of the pcDNA3.1/(+) vector (Invitrogen) and DNA was introduced into the GqΔGi/CHO cell line by Lipofectamine reagent (Invitrogen). Cell lines stably expressing the CB receptor with GqΔGi chimera protein were generated by double selection with hygromycin and G418 (Coward, P., et al. 1999. Chimeric G proteins allow a high-throughput signaling assay of Gi-coupled receptors. Anal Biochem. 270:242-8).
CB1 Cells were plated 24-48 hours in advance, and were harvested with trypsin at ˜80% confluency. Cells were then centrifuged and resuspended two times in Hybridoma Media, the final time at a concentration of 1×10^6 cells/mL. Two μM of Indo-1 were added and cells were incubated for 1 hour on a rotator at room temperature. […]
The probe-loaded CB1 and Control cell mixture was placed in the Cell Suspension System on the DSIS where they were continuously rocked to keep them in a suspended state. […] The DSIS software, NVS Sampler, recorded a timing file and the CyAn software, Summit, recorded a data file. […]

CB2 receptor = molecular target: T4, CB2 receptor (Homo sapiens, UniProt P34972); assay: Ca2+i response to 2-AG dose-response in CB2 receptor bearing cells with or without compound; assay type: cell-based; conditions: 2-AG with or without compound, FIG. 2
T4 construct: host or cells: CB2 receptor bearing cells (host line not described)

CB1 receptor [6] = molecular target: T1, CB1 receptor; assay: [35S]GTPγS binding assay on CHO-k1 cell membranes; assay type: biochemical; set-up: expressed in transfected cells; host or cells: CHO-k1 cell membranes
Description: [^35S]GTPγS binding assays were performed with CHO-k1 cell membranes stably expressing human CB1 receptors in 96-well ScintiPlate (PerkinElmer). The membranes (12.5 μg/well) were preincubated with compound 7 in the binding buffer (50 mM Tris-HCl, pH 7.4, 100 mM NaCl, 3 mM MgCl2, 0.2 mM EDTA, 0.2% BSA and 10 μM GDP) at 30° C. for 30 min, then added various concentrations of agonists (WIN 55212-2 or CP 55,940) and [^35S]GTPγS (0.2 nM) in a final volume of 200 μl. Reactions were carried out at 30° C. for 60 min, followed by centrifugation of plate at […] for 15 min. After removing supernatant, the radioactivity was quantitated on a TopCounter.

[7] = Body weight of diet-induced obese mice, chronic administration of Treatment E (Example 4)
[8] = Acute administration: wet mash and food intake and 24 h body weight in lean mice (Example 3); assay type: in vivo, male C57BL/6J mice; conditions: dosed orally at 10 mg/kg, one-way ANOVA
[9] = Body weight of diet-induced obese mice, repeated oral administration (Example 2); assay type: in vivo, male C57BL/6J mice; conditions: for reduction of body weight: dosed for 28 days, DIO mice, FIG. 8
Description: Sixty-five C57BL/6J mice (7-8 weeks of age) were ordered from Charles River, Margate, Kent. Mice were group housed in polypropylene cages with free access to a high fat diet (D12451 45% of Kcal derived from fat; Research Diets, New Jersey, USA) and tap water at all times. Animals were maintained at 21±4° C. and 55±20% humidity on a normal phase 12 h light-dark cycle (lights on 04:30 h)
Body weight and food and water intake were recorded daily. Following drug administration the animals were examined and any overt behaviour was recorded. For all dosing, the morning session was timed such that approximately half the mice were dosed at the time of lights out (09:30).
The test compounds were dissolved in 1% methylcellulose. Drugs were made up fresh each day 1-2 h before dosing and were administered using a dose volume in the range of 1-3 ml/kg. Drug doses were expressed as free base.
P<0.05 was considered to be statistically significant. Daily food and water intake data was analysed by ANOVA.

T1 sequence (P21554 whole entry): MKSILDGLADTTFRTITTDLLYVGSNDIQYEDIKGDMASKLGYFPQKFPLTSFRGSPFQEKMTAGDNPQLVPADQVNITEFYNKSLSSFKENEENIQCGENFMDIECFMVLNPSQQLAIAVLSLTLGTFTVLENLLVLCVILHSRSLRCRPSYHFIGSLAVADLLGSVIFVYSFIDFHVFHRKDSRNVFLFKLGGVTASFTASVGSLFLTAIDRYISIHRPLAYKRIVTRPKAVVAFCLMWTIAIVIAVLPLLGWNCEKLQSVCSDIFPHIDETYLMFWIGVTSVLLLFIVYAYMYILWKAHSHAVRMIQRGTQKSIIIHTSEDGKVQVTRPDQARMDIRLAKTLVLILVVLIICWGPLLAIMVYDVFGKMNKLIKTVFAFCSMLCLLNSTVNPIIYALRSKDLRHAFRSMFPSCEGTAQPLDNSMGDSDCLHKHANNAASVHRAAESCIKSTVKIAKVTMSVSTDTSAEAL
T2 sequence (P47746 whole entry): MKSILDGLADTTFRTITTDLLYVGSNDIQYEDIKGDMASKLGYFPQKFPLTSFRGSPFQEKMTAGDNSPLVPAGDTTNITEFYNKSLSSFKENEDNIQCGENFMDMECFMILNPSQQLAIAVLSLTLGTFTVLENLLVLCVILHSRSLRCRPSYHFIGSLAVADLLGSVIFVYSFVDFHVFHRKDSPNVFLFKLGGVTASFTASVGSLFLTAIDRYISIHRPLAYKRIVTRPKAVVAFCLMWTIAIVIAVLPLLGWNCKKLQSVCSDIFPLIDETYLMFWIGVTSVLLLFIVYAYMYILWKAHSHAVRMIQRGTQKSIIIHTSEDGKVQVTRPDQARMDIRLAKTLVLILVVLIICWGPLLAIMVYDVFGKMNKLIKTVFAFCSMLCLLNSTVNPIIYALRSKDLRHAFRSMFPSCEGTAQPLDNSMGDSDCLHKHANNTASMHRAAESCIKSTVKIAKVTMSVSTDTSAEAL
T4 sequence (P34972 whole entry): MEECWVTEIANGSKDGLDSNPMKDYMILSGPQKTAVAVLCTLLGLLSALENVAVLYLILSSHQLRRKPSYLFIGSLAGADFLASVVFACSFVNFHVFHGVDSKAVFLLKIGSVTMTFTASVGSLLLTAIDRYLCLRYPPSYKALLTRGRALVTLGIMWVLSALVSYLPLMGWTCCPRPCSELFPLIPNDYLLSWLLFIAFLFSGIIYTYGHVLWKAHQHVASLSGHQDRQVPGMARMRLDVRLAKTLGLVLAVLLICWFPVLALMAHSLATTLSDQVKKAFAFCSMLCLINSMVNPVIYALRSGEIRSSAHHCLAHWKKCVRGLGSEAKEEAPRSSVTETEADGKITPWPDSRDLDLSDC
T3 sequence (P21554 whole entry): as the sequence (P21554 whole entry) above

NCCC(Oc1ccc(C(F)(F)F)cc1)c1ccccc1 (racemic) [racemate of norfluoxetine, 3-(4-trifluoromethylphenoxy)-3-phenylpropylamine]
functional activity versus the CB1 receptor (CB1 receptor [1]): antagonist

CNCC[C@@H](Oc1ccc(C(F)(F)F)cc1)c1ccccc1 [(R)-fluoxetine]
functional activity versus the CB1 receptor (CB1 receptor [1]): antagonist

CNCC[C@H](Oc1ccc(C(F)(F)F)cc1)c1ccccc1 [(S)-Fluoxetine]
functional activity versus the CB1 receptor (CB1 receptor [1]): inverse agonist

Fc1ccc(C(OCCCc2c[nH]cn2)c2ccc(F)cc2)cc1 [compound 7]
inhibition of binding of [3H]CP 55,940 (CB1 receptor [2]): partially inhibited
inhibition of agonist (CP 55940) binding ([3]; mouse brain membrane, FIG. 7): inhibited
inhibition of antagonist/inverse agonist (SR 141716) binding ([3]; mouse brain membrane, FIG. 7): inhibited
inhibition of binding of [3H]CP 55,940 ([3]; mouse brain membranes, 0.75 nM radioligand, FIG. 6): almost fully inhibited
effect on the dissociation rate of [3H]CP 55,940 (CB1 receptor [4]): no effect
effect on the 2-AG dose response (Ca2+i) [5]: right shift
effect on the 2-AG dose response (Ca2+i) (CB2 receptor): No effect
pA2 estimation using CP 55940 as an agonist (CB1 receptor [6]; CB1 cell line, FIG. 4): did not support an allosteric effect
[35S]GTPγS binding: antagonist versus inverse agonist activity (CB1 receptor [6]; response dropped below basal levels, FIG. 5): inverse agonist activity

Cc1c(C(=O)NN2CCCCC2)nn(-c2ccc(Cl)cc2Cl)c1-c1ccc(Cl)cc1 [rimonabant]
reduction in body weight ([7]; 10 mg/kg orally, chronic administration, DIO mice, FIG. 22): 15%
weight reduction as compared to vehicle on day 29 (Dunnett's test) ([7]; dosed orally at 10 mg/kg, p<0.001): statistically significant weight reduction
24 hour body weight change versus vehicle [8]: No significant differences
body weight versus vehicle [8]: No significant differences
daily food intake versus vehicle [8]: No significant differences
reduction of body weight ([9]; 10 mg/kg po): 15%
weight reduction as compared to vehicle on day 29 (Dunnett's test) ([9]; 10 mg/kg po, p<0.001, DIO mice): statistically significant weight reduction

CC(C)CC(N(C)C)C1(c2ccc(Cl)cc2)CCC1 (centres unmarked) [sibutramine]
reduction of body weight ([9]; 20 mg/kg po): 2%
